The source of these data is patent US4308278A, “Anorexigenic 4-[(3,4-dialkoxyphenyl)alkyl]-2-imidazolidinone derivatives” (Gyogyszerkutato Intezet, priority 1978, dated 1981).

Counter-ions that a name gives are not always drawn.

Data set [1] concerns CFY rats. The experiment in a line: anorexigenic effect in starved CFY rats (feed consumption / body weight). Format: in vivo, rat. The settings on record: for ED50: Rattus norvegicus, rats, starved 24 h, dose halving food consumption or body weight gain vs control, read-out: ED50 orally in rats; for ED50 / Therapeutic ratio: oral; for Therapeutic ratio: LD50 and ED50 in rats. The procedure: For studying the anorexigenic effect the following method was used. CFY rats were starved for 24 hours, then the substance was orally administered, and half an hour later the animals were allowed to feed ad libitum during 5 hours when the feed consumption was measured. The change in the body weight of animals and the amount of the consumed solid, granulated food or sugar milk or peeled potato, respectively, were determined.
*ED50 is the oral dose after administration of which, following a
period of 24 hours of starvation, the rats consume the half amount of foo
as compared to control, or the oral dose after the administration of whic
the body weight gain is a half of that of control.

For the next data set, the system named is rats. To be noted: oral, literature value (footnotes 2, 3); cited from earlier work.
The test system of another data set is mice. To be noted: oral, literature value (footnotes 1, 2, 5); cited from earlier work.
A short description of a further data set: acute toxicity in mice. The settings on record: mouse, in vivo.
Data set [2] concerns CFY rats. The settings on record: oral, literature value (footnotes 4, 5); cited from earlier work.
A short description of data set [3]: acute oral toxicity in rats. The settings on record: rat, in vivo.

By LD50 is commonly meant the dose expected to kill half of the subjects tested. Higher therefore signals lower toxicity. With `CCNC(C)Cc1cccc(C(F)(F)F)c1` (racemic) [Fenfluramine, DL-N-ethyl-α-methyl-3-trifluoromethylbenzeneethanamine hydrochloride], in the data set on CFY rats [1], the ED50 came to 7.5 mg/kg and the Therapeutic ratio was 20.3. Moreover, the “Acute LD50 orally in rats” value in the data set on rats is given as 138 mg/kg. Further, the “Acute LD50 orally in mice” value in the data set with mice is 170 to 290 mg/kg. This compound also came in with a 50% lethal dose (LD50) in the data set “acute toxicity in mice” (ip) of 100 mg/kg.
On to `CC(C)(N)Cc1ccc(Cl)cc1.Cl` [Chlorphentermine, α,α-dimethyl-4-chlorobenzeneethanamine hydrochloride], for which the Therapeutic ratio with CFY rats [1] turned out to be 30.0. Further, the “ED50 orally in rats” value in the data set on CFY rats [2] is 12.5 mg/kg. In addition, the “Acute LD50 orally in mice” value in the data set with mice is given as 250 mg/kg. Further, in data set [3], the LD50 amounted to 375 mg/kg.
As for `CC(N)Cc1ccccc1` [D-Amphetamine, D-benzeneethanamine sulphate], in the data set on CFY rats [1], the ED50 is 5 mg/kg and the Therapeutic ratio is recorded as 7.6. Besides, the “Acute LD50 orally in rats” value in the data set on rats is reported as 38 mg/kg. In addition, the “Acute LD50 orally in mice” value with mice was 60 mg/kg.
On to `COc1ccc(CC2CNC(=O)N2)cc1OC1CCCC1` (stereo not drawn) [Ia, 4-[(3-cyclopentyloxy-4-methoxyphenyl)methyl]-2-imidazolidinone], for which, in the data set with CFY rats [1], the ED50 came out at 10.5 mg/kg. Moreover, the “therapeutic ratio (comparison in words)” value in the data set with CFY rats [1] (compared with anorexigenic drugs introduced so far) was “more favourable than that of the best anorexigenic drugs introduced so far”. Besides, the anorexigenic effect result in the data set on CFY rats [1] (in words) is listed as “much more intense than that of the anorexigenic drugs introduced so far”. Further, in the data set with CFY rats [1], the Therapeutic ratio is 72.5. In addition, the figures for the median lethal dose (LD50) (in the data set “acute toxicity in mice” (ip); in the data set “acute toxicity in mice” (po); in data set [3]) were 680 mg/kg, 2050 mg/kg and 760 mg/kg, respectively.
For the compound `OC1(c2ccc(Cl)cc2)c2ccccc2C2=NCCN21` (stereo not drawn) [Mazindol, 5-(4-chlorophenyl)-2,5-dihydro-3H-imidazo[2,1-a]isoindol-5-ol], the Therapeutic ratio in the data set with CFY rats [1] is 9.7. Moreover, the “ED50 orally in rats” value with CFY rats [2] is 25.8 mg/kg. Further, the figures for the median lethal dose (LD50) (in the data set “acute toxicity in mice” (po); in data set [3]) were 106 mg/kg and 250 mg/kg, respectively.
